Assay results as given in patent US20240417428A1, “POLYPEPTIDE FOR INHIBITING TRPM8 AND USE THEREOF” (ZHEJIANG UNIVERSITY, priority 2021, published 2024).
Where a SMILES comes first, the peptide text is derived from it.

Target: TRPM8 (Mus musculus, UniProt Q8R4D5)
Test: Calcium imaging of primary cultured DRG neurons from oxaliplatin-treated mice
Format: cell-based
Parameters: endogenous in cells; host or cells: primary cultured dorsal root ganglion neurons from saline- or oxaliplatin-treated mice
Settings: 10 μM DeC-1.2, DRG neurons of oxaliplatin treated mice
Protocol: Mice was deeply anaesthetized, decapitated and blood was removed, DRG tissue was dissected off quickly and placed in ice-cold PBS solution. After washing the blood, digestive enzyme (Collagenase A 20 mg/100 ml, Dispase II 300 mg/100 ml dissolved in PBS) was added and DRG was digested at 37° C. for 1 hour. The samples were centrifuged at 500 g for 5 min and the digested tissue was collected. When the enzyme solution was removed, an appropriate amount of DMEM medium (containing 10% FBS, 1× Pen/Strep) was added, and the single cell suspension was prepared by mechanical trituration. The samples were centrifuged at 500 g for 10 min. […]
The primary-cultured DRG neurons were washed with a extracellular solution (ECS, 140 mM NaCl, 5 mM KCl, 1 mM MgCl2, 1.8 mM CaCl2), 10 mM Glucose, 15 mM HEPES, pH=7.4) then incubated in calcium dye incubation solution (2 μM […], 0.05% Pluronic F-127 in ECS) for 30 min. The cell images were continuously and alternately excited by a high-speed continuous monochromatic light source under the excitation wavelength of 340 nm and 380 nm, and recorded in full vision under 20× object lens by Visiview software Intracellular fluorescence intensity changes were continuously recorded at 0.5 fps via a high-speed scanning camera Flash4.0LT. The ratio of fluorescence signal at 340 nm/380 nm represents the intensity of calcium signal. […]

Sequence of TRPM8 (Q8R4D5 whole entry): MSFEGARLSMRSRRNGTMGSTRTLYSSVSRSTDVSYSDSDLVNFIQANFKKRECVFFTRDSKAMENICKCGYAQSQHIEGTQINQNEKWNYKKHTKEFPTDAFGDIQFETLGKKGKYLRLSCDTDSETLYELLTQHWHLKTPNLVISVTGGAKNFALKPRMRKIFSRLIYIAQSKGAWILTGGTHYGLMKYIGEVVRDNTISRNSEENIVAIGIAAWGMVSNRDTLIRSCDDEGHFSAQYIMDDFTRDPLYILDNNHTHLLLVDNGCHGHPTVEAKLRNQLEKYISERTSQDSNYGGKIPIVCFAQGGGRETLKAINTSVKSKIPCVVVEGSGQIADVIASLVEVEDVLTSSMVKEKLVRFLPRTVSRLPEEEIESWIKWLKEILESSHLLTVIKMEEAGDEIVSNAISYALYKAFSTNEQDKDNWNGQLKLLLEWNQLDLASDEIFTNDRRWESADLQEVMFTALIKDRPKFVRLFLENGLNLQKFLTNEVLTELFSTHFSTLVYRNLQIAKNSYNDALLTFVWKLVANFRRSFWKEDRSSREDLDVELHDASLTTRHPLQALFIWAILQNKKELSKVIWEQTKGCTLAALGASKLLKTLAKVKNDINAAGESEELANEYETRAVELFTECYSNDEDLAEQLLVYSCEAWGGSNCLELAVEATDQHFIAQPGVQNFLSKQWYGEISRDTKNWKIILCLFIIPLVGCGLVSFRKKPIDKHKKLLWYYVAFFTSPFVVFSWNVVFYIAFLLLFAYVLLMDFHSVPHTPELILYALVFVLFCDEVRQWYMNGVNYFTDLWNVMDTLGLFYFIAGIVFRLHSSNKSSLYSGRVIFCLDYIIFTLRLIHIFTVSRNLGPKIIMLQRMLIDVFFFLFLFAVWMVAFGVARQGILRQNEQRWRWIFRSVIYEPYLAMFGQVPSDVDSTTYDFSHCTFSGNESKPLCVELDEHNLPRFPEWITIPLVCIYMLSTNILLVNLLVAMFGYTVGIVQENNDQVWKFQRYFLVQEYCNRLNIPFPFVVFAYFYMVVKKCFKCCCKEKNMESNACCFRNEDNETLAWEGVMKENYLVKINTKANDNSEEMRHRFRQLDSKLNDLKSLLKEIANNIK

SMILES: C[C@@H]1NC(=O)[C@H](CCCNC(=N)N)NC(=O)[C@H](CC(=O)O)NC(=O)[C@H](CCCNC(=N)N)NC(=O)[C@H](CCCNC(=N)N)NC(=O)[C@@H](N)CSSC[C@@H](C(=O)O)NC(=O)[C@H](CCCNC(=N)N)NC(=O)[C@H](CCC(N)=O)NC(=O)[C@H](CCCNC(=N)N)NC(=O)[C@H](Cc2ccc(O)cc2)NC(=O)[C@H](Cc2c[nH]cn2)NC(=O)[C@H](CCCNC(=N)N)NC1=O [DeC-1.2, CRRDRARHYRQRC] (HELM PEPTIDE1{C.R.R.D.R.A.R.H.Y.R.Q.R.C}$PEPTIDE1,PEPTIDE1,1:R3-13:R3$$$V2.0; N-terminus and C-terminus assumed)
- amplitude of calcium influx induced by menthol: significantly inhibit
- percentage of positive reaction cells in response to menthol: significantly inhibit
